Experiment [1] deals with Caco2-HIF1α-HiBiT-clone-1 cells. Briefly: Caco-2 HIF1α-HiBiT assay. The following applies: Homo sapiens, Caco-2; Caco2-HIF1α-HiBiT-clone-1 cells, 6 h incubation, luminescence; read-out: Caco2-HIF1α-HiBit assay - EC50. The format is cell-based. (With HiBiT, luminescence reflects the tagged protein that the partner subunit can reach.)
Another experiment has as its target PHD2 (Homo sapiens, UniProt Q9GZT9). Briefly: PHD2 enzymatic assay (AlphaScreen). The format is biochemical. Particulars: PHD2 enzyme, AlphaScreen, IC50 from % inhibition; read-out: PHD2. In general terms: Bead proximity is the source of the signal in Alpha formats.

Broadly, the EC50 is the concentration that produces a half-maximal response.

Chain of PHD2 (Q9GZT9 whole entry): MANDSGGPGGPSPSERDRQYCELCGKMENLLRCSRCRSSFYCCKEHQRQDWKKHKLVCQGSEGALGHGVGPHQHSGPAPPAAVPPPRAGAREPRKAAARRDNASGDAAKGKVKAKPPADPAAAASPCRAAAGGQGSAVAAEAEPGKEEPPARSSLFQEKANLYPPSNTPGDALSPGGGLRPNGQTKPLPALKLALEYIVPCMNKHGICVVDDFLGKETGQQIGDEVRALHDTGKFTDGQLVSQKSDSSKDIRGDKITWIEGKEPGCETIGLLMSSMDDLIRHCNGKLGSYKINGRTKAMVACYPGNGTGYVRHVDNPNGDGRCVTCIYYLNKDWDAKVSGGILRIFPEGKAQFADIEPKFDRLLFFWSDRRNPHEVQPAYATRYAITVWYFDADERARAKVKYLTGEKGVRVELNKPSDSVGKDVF

Consider `COC(=O)C1CN(c2ccc3c(O)c(C(=O)NCc4ccc(C#N)nc4)ncc3n2)C1` [Example 84], for which the EC50 in experiment [1] lay in the range of 5000 to 7500 nM. Moreover, on PHD2, the IC50 is less than 5 nM.
The corresponding values for `N#Cc1ccc(CNC(=O)c2ncc3nc(N4CCOC(=O)C4)ccc3c2O)cn1` [Example 85, N-((6-cyanopyridin-3-yl)methyl)-5-hydroxy-2-(2-oxomorpholino)-1,7-naphthyridine-6-carboxamide] are 10000 to 100000 nM and less than 5 nM.
The corresponding values for `COCCOC(=O)C1CCN(c2ccc3c(O)c(C(=O)NCc4ccc(C#N)nc4)ncc3n2)CC1` [Example 86] are 10000 to 100000 nM and less than 5 nM.
The corresponding values for `COC(=O)[C@H]1CN(c2ccc3c(O)c(C(=O)NCc4ccc(C#N)nc4)ncc3n2)CCN1C1CC1` [Example 89] are 2500 to 5000 nM and less than 5 nM.
As for `COC(=O)[C@H]1CN(c2ccc3c(O)c(C(=O)NCc4ccc(C#N)nc4)ncc3n2)CCO1` [Example 92], the EC50 in experiment [1] lay in the range of 5000 to 7500 nM. Besides, on PHD2, the IC50 is less than 5 nM.
The corresponding values for `CCOC(=O)C1CCN(c2ccc3c(O)c(C(=O)NCc4ccc(C#N)nc4)ncc3n2)CC1` [Example 94] are 7500 to 10000 nM and less than 5 nM.
The corresponding values for `CC(C)OC(=O)C1CCN(c2ccc3c(O)c(C(=O)NCc4ccc(C#N)nc4)ncc3n2)CC1` [Example 95] are 10000 to 100000 nM and less than 5 nM.
Regarding `N#Cc1ccc(CNC(=O)c2ncc3nc(N4CCC(C(=O)OC5CC5)CC4)ccc3c2O)cn1` [Example 96], the EC50 in experiment [1] lay in the range of 10000 to 100000 nM. Further, the IC50 at PHD2 was less than 5 nM.
Consider `N#Cc1ccc(CNC(=O)c2ncc3nc(N4CCOCC4=O)ccc3c2O)cn1` [Example 100], for which the 50% effective concentration (EC50) in experiment [1] fell in the range of 7500 to 10000 nM. The IC50 on PHD2 was 5 to 20 nM.
The corresponding values for `CC(C)(C)OC(=O)N1CCN(c2ccc3c(O)c(C(=O)NCc4ccc(C#N)nc4)ncc3n2)C(=O)C1` [Example 101] are 2500 to 5000 nM and less than 5 nM.
The corresponding values for `N#Cc1ccc(CNC(=O)c2ncc3nc(N4CCOC4=O)ccc3c2O)cn1` [Example 103] are 2500 to 5000 nM and less than 5 nM.
The corresponding values for `N#Cc1ccc(CNC(=O)c2ncc3nc(N4CC(O)(CO)C4)ccc3c2O)cn1` [Example 119] are 10000 to 100000 nM and less than 5 nM.
As for `COC(=O)N1CCN(c2ccc3c(O)c(C(=O)NCc4ccc(C#N)nc4)ncc3n2)CC1` [Example 120], the EC50 in experiment [1] fell in the range of 10000 to 100000 nM. Besides, the IC50 at PHD2 is less than 5 nM.
For `COC(=O)C1(O)CN(c2ccc3c(O)c(C(=O)NCc4ccc(C#N)nc4)ncc3n2)C1` [Example 121], in experiment [1], the 50% effective concentration (EC50) lay within 7500 to 10000 nM. The IC50 at PHD2 is less than 5 nM.
As for `CC(C)(C)OC(=O)NC1CCN(c2ccc3c(O)c(C(=O)NCc4ccc(C#N)nc4)ncc3n2)CC1` [Example 123], the concentration giving a half-maximal response (EC50) in experiment [1] is 2500 to 5000 nM. The IC50 on PHD2 was less than 5 nM.
The corresponding values for `N#Cc1ccc(CNC(=O)c2ncc3nc(N4CCC(N)CC4)ccc3c2O)cn1` [Example 124, 2-(4-aminopiperidin-1-yl)-N-((6-cyanopyridin-3-yl)methyl)-5-hydroxy-1,7-naphthyridine-6-carboxamide] are 10000 to 100000 nM and less than 5 nM.
Consider `CC(C)(C)OC(=O)N[C@H]1CCN(c2ccc3c(O)c(C(=O)NCc4ccc(C#N)nc4)ncc3n2)C1` [Example 125], for which, in experiment [1], the EC50 is less than 2500 nM. The IC50 on PHD2 is less than 5 nM.
The corresponding values for `N#Cc1ccc(CNC(=O)c2ncc3nc(N4CC[C@H](N)C4)ccc3c2O)cn1` [Example 126, (S)-2-(3-aminopyrrolidin-1-yl)-N-((6-cyanopyridin-3-yl)methyl)-5-hydroxy-1,7-naphthyridine-6-carboxamide] are 10000 to 100000 nM and less than 5 nM.
The corresponding values for `CC(C)(C)OC(=O)NC1CN(c2ccc3c(O)c(C(=O)NCc4ccc(C#N)nc4)ncc3n2)C1` [Example 127] are less than 2500 nM and less than 5 nM.
The corresponding values for `N#Cc1ccc(CNC(=O)c2ncc3nc(N4CC(N)C4)ccc3c2O)cn1` [Example 128, 2-(3-aminoazetidin-1-yl)-N-((6-cyanopyridin-3-yl)methyl)-5-hydroxy-1,7-naphthyridine-6-carboxamide] are 5000 to 7500 nM and 20 to 100 nM.
For the compound `CC(C)(C)OC(=O)N1CCN(c2ccc3c(O)c(C(=O)NCc4ccc(C#N)nc4)ncc3n2)C[C@@H]1C#N` [Example 132], the 50% effective concentration (EC50) in experiment [1] was in the range of 5000 to 7500 nM. The IC50 at PHD2 was less than 5 nM.
The corresponding values for `CC(C)(C)OC(=O)N1CCN(c2ccc3c(O)c(C(=O)NCc4cnc(C#N)nc4)ncc3n2)CC1` [Example 133] are 2500 to 5000 nM and 5 to 20 nM.
The corresponding values for `CC1(OC(=O)N2CCN(c3ccc4c(O)c(C(=O)NCc5ccc(C#N)nc5)ncc4n3)CC2)CC1` [Example 137] are less than 2500 nM and less than 5 nM.
The corresponding values for `CC(C)OC(=O)N1CCN(c2ccc3c(O)c(C(=O)NCc4ccc(C#N)nc4)ncc3n2)CC1` [Example 138] are 2500 to 5000 nM and less than 5 nM.
As for `C[C@H]1CN(C(=O)OC(C)(C)C)CCN1c1ccc2c(O)c(C(=O)NCc3ccc(C#N)nc3)ncc2n1` [Example 139], the EC50 in experiment [1] lay in the range of 2500 to 5000 nM. The IC50 at PHD2 is less than 5 nM.
For the compound `CC(C)(C)OC(=O)N[C@@H]1CCN(c2ccc3c(O)c(C(=O)NCc4ccc(C#N)nc4)ncc3n2)C1` [Example 140], the EC50 in experiment [1] was in the range of 2500 to 5000 nM. Also, the IC50 at PHD2 is 5 to 20 nM.
The corresponding values for `CC(C)(C)OC(=O)N[C@@H]1CN(c2ccc3c(O)c(C(=O)NCc4ccc(C#N)nc4)ncc3n2)C[C@@H]1F` [Example 142] are 2500 to 5000 nM and 5 to 20 nM.
The corresponding values for `CC(C)(C)OC(=O)N[C@H]1CC(=O)N(c2ccc3c(O)c(C(=O)NCc4ccc(C#N)nc4)ncc3n2)C1` [Example 143] are less than 2500 nM and less than 5 nM.
The corresponding values for `CC(C)(C)OC(=O)NC1CCN(c2ccc3c(O)c(C(=O)NCc4ccc(C#N)nc4)ncc3n2)C1=O` (stereo not shown) [Example 144] are 2500 to 5000 nM and 5 to 20 nM.
On to `C[C@@H]1CN(c2ccc3c(O)c(C(=O)NCc4ccc(C#N)nc4)ncc3n2)CCN1C(=O)OC(C)(C)C` [Example 149], for which the concentration for a half-maximal effect (EC50) in experiment [1] fell in the range of 2500 to 5000 nM. Also, on PHD2, the IC50 was less than 5 nM.
Regarding `C[C@@H]1CN(C(=O)OC(C)(C)C)CCN1c1ccc2c(O)c(C(=O)NCc3ccc(C#N)nc3)ncc2n1` [Example 150], the concentration for a half-maximal effect (EC50) in experiment [1] was less than 2500 nM. In addition, the IC50 on PHD2 was less than 5 nM.
The corresponding values for `COC(=O)CC1CN(c2ccc3c(O)c(C(=O)NCc4ccc(C#N)nc4)ncc3n2)C1` [Example 152] are 2500 to 5000 nM and less than 5 nM.

Source of the values: US12071443B2, “Prolyl hydroxylase domain-containing protein (PHD) inhibitors and uses thereof” (Insilico Medicine IP Limited, priority 2021, dated 2024).
